In patent US6083917A, “Methods and compositions for the identification, characterization and inhibition of farnesyltransferase” (Board of Regents, The University of Texas System, priority 1992, dated 2000):
Like-named read-outs stand apart in the source and are kept apart here. Residues, ends and D or L forms follow the SMILES beside them. No end group written: not given here. *: point of attachment. Octanoyl = CCCCCCCC(=O)*

What was measured:
[1] = target: T1, rat brain farnesyltransferase (Rattus norvegicus, UniProt Q02293+Q04631); assay: Farnesyltransferase assay: transfer of [3H]farnesyl from [3H]FPP to p21H-ras (TCA filter assay), competition by peptides; format: biochemical; parameters: Brains from 50 male Sprague-Dawley rats (100-150 g) were homogenized; from tissue; host or cells: rat brain (male Sprague-Dawley rats)
T1 sequence (Q02293 whole entry, one chain of several): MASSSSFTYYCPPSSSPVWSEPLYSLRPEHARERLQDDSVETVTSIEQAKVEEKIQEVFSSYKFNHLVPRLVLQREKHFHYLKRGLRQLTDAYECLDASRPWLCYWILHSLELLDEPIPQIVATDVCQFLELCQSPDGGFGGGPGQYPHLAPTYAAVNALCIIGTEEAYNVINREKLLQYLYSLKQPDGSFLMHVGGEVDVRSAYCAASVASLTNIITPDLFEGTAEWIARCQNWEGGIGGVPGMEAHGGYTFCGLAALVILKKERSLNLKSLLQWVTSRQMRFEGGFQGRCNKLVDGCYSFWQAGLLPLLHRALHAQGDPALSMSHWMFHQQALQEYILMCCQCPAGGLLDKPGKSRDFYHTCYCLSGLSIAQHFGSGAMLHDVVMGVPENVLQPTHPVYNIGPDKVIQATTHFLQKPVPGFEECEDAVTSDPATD
Experimental: Farnesyltransferase activity was determined by measuring the amount of ^3 H-farnesol transferred from all-trans ^3 H]farnesyl pyrophosphate ([^3 H]FPP) to p21^H-ras protein. The standard reaction mixture contained the following concentrations of components in a final volume of 25 μl: 50 mM Tris-chloride (pH 7.5), 50 μM ZnCl2, 20 mM KCl, 1 mM DTT, and 40 μM p21^H-ras. The mixture also contained 10 pmoles of [^3 H]FPP (~30,000 dpm/pmol) and 1.8-3.5 μg of partially purified farnesyltransferase (see below). After incubation for 1 hour at 37° C. in 12×75-mm borosilicate tubes, the reaction was stopped by addition of 0.5 ml of 4% SDS and then 0.5 ml of 30% trichloroacetic acid (TCA).
The tubes were vortexed and left on ice for 45-60 min, after which 2 ml of a 6% TCA/2% SDS solution were added. The mixture was filtered on a 2.5-cm glass fiber filter with a Hoefer filtration unit (FH 225). The tubes were rinsed twice with 2 ml of the same solution, and each filter was washed five times with 2 ml of 6% TCA, dried, and counted in a scintillation counter. One unit of activity is defined as the amount of enzyme that transfers 1 pmol of [^3 H]farnesol from [^3 H]FPP into acid-precipitable p21^H-ras per hour under the standard conditions.
The standard assay involved measuring the amount of [^3 H]farnesyl transferred from all-trans [^3 H]FPP to recombinant human p21^H-ras as described in Example I. Each reaction mixture contained the following concentrations of components in a final volume of 25 μl: 50 mM Tris-chloride (pH 7.5), 50 μM ZnCl2, 30 mM KCl, 1 mM DTT, 30 or 40 μM p21^H-ras, 15 pmol [^3 H]FPP (12-23,000 dpm/pmol), 4 to 7.5 μg of partially purified farnesyltransferase (Mono Q fraction, see Example I), and the indicated concentration of competitor peptide added in 3 μl of 10 mM DTT. […] This blank value was subtracted before calculating "% of control" values.
The amount of [^3 H]farnesyl transferred from all-trans-[^3 H]farnesyl pyrophosphate to recombinant p21^H-ras was measured in a filter assay as previously described (62).

[2] = target: T1, rat brain farnesyltransferase; assay: as above; format: biochemical; parameters: Brains from 50 male Sprague-Dawley rats (100-150 g) were homogenized; from tissue; host or cells: rat brain (male Sprague-Dawley rats); conditions: Concentration giving 50% inhibition of farnesylation of p21H-ras, FIG. 23A; Mono Q fraction, 0.5 μM [3H]farnesyl pyrophosphate, 30 min at 37° C.
[3] = target: T1, rat brain farnesyltransferase; assay: Binding of prenyl pyrophosphates to protein farnesyltransferase (gel filtration); parameters: Protein farnesyltransferase was purified to apparent homogeneity from rat brain homogenates; from tissue; host or cells: rat brain; conditions: purified enzyme
Excerpt: Transfer of the enzyme-bound farnesyl group to the bound p21^H-ras required Mg^2+. […] It also was not transferred to a modified p21^H-ras containing COOH-terminal leucine, a protein that was shown previously to be a good substrate for a rat brain geranylgeranyltransferase (35). The inventors conclude that the protein farnesyltransferase is a metalloenzyme that most likely contains Zn^2+ at the peptide-binding site. It thus resembles certain metallopeptidases, including carboxy-peptidase A and the angiotensin-converting enzyme. Strategies previously developed to screen for inhibitors of those enzymes will likely aid in the search for inhibitors of the protein farnesyltransferase.

[4] = Table III, six concentrations 0.03 to 10 μM, read-out: Concentration for 50% Inhibition of Farnesylation of p21H-ras
[5] = Table II, partially purified rat farnesyltransferase, p21H-ras acceptor, seven concentrations 0.03 to 100 μM, read-out: Concentration for 50% Inhibition
[6] = Concentration giving 50% inhibition of farnesyltransferase (text, FIG. 14 / Table II), Example II, partially purified rat brain enzyme, p21H-ras acceptor

CC[C@H](C)[C@H](NC(=O)[C@@H](NC(=O)[C@H](CS)NC(C)=O)C(C)C)C(=O)N[C@@H](CCSC)C(=O)O [N-AcCVIM] (Ac-CVIM-OH)
IC50 [1, 4]: 150 nM

CSCC[C@H](NC(=O)[C@H](Cc1c[nH]c2ccccc12)NC(=O)[C@@H](NC(=O)[C@@H](N)CS)C(C)C)C(=O)O [CVWM] (H-CVWM-OH)
IC50 [1, 4]: 320 nM

CSCC[C@H](NC(=O)[C@H](Cc1ccccc1)NC(=O)[C@@H](NC(=O)[C@H](CS)NC(=O)[C@@H](N)CS)C(C)C)C(=O)O [CCVFM] (H-CCVFM-OH)
IC50 [1, 4]: 440 nM

Ac-HCVFM [N-AcHCVFM]
IC50 [1, 4]: 240 nM

Ac-GCVFM [N-AcGCVFM]
IC50 [1, 4]: 430 nM

CSCC[C@H](NC(=O)[C@@H](NC(=O)[C@@H](NC(=O)[C@@H](N)CS)C(C)C)C(C)C)C(=O)O [CVVM] (H-CVVM-OH)
IC50 [1, 5]: 150 nM

Ac-PCVFM [N-AcPCVFM]
IC50 [1, 4]: 200 nM

CSCC[C@H](NC(=O)[C@H](Cc1ccccc1)NC(=O)[C@@H](NC(=O)[C@H](CS)NC(C)=O)C(C)C)C(=O)O [N-AcCVFM] (Ac-CVFM-OH)
IC50 [2]: 270 nM
IC50 [1, 4]: 250 nM

CC(C)=CCC/C(C)=C/CC/C(C)=C/CC/C(C)=C/COP(=O)(O)OP(=O)(O)O [Geranylgeranyl pyrophosphate]
Affinity for the prenyl pyrophosphate binding site [3]: affinity equal to that of farnesyl pyrophosphate

CC(C)=CCC/C(C)=C/CC/C(C)=C/COP(=O)(O)OP(=O)(O)O [[^3 H]farnesyl pyrophosphate, farnesyl pyrophosphate, reference compound]
Concentration that gave half-maximal reaction velocity ([1]; substrate saturation, FIG. 2A and 2B): approximately 0.5 μM

Ac-DCVFM [N-AcDCVFM]
IC50 [1, 4]: 1900 nM

Ac-SCVFM [N-AcSCVFM]
IC50 [1, 4]: 230 nM

CC[C@H](C)[C@H](NC(=O)[C@H](CO)NC(=O)[C@@H](N)CS)C(=O)N[C@@H](CCSC)C(=O)O [CSIM] (H-CSIM-OH)
IC50 [1, 5]: 200 nM

CSCC[C@H](NC(=O)[C@H](Cc1c[nH]c2ccccc12)NC(=O)[C@@H](NC(=O)[C@H](CS)NC(C)=O)C(C)C)C(=O)O [N-AcCVWM] (Ac-CVWM-OH)
IC50 [1, 4]: 3700 nM

CC[C@H](C)[C@H](NC(=O)[C@H](C)NC(=O)[C@@H](N)CS)C(=O)N[C@@H](CCSC)C(=O)O [CAIM] (H-CAIM-OH)
IC50 [1, 6]: 150 nM
IC50 [1, 5]: 150 nM

CCCCCCCC(=O)N[C@@H](CS)C(=O)N[C@H](C(=O)N[C@@H](Cc1ccccc1)C(=O)N[C@@H](CCSC)C(=O)O)C(C)C [N-Octanoyl-CVFM] (Octanoyl-CVFM-OH)
IC50 [1, 4]: 350 nM

CSCC[C@H](NC(=O)[C@H](Cc1ccccc1)NC(=O)[C@@H](NC(=O)[C@H](CS)NC(=O)[C@H](CS)NC(C)=O)C(C)C)C(=O)O [N-AcCCVFM] (Ac-CCVFM-OH)
IC50 [1, 4]: 110 nM

Ac-ECVFM [N-AcECVFM]
IC50 [1, 4]: 2400 nM

CC[C@H](C)[C@H](NC(=O)[C@@H](NC(=O)[C@@H](N)CS)C(C)C)C(=O)N[C@@H](CCSC)C(=O)O [CVIM] (H-CVIM-OH)
IC50 [1, 6]: 150 nM
IC50 [1, 5]: 150 nM
IC50 [1, 4]: 150 nM

CC[C@H](C)[C@H](NC(=O)[C@@H](NC(=O)[C@@H](N)CS)[C@@H](C)CC)C(=O)N[C@@H](CCSC)C(=O)O [CIIM] (H-CIIM-OH)
IC50 [1, 5]: 150 nM

Ac-MCVFM [N-AcMCVFM]
IC50 [1, 4]: 1400 nM

KCVFM [KCVFM]
IC50 [1, 4]: 1100 nM

Ac-KCVFM [N-AcKCVFM]
IC50 [1, 4]: 300 nM
